This note sets out measurements from patent US9243021B2, “Galactoside inhibitor of galectins” (University of Edinburgh, priority 2012, dated 2016).

Series [1] concerns bleomycin induced lung fibrosis. Nature of the series: Model of bleomycin-induced lung fibrosis. The format is in vivo, mouse. Particulars: female C57/Bl6 mice, intratracheal on days 18, 20, 22 and 24, lungs harvested day 26. How it is done:
Female C57/Bl6 mice (10-14 weeks old) were anaesthetized with halothane, and bleomycin or saline was administered intratracheally (33 μg in 50 μl of saline) and lungs were harvested on day 26. TD139 was instilled into the lungs of mice on days 18, 20, 22 and 24 of bleomycin induced lung injury. Fibrosis was assessed by histological score of collagen stained lung sections and by total collagen content by Sircol assay.
Mice were treated with bleomycin (bleo) or saline (control) and bleomycin treated mice were treated with 200 mg/kg pirfenidone twice daily on days 18-24. TD139 was administered intratracheally on days 18, 20, 22 and 24. Lungs were harvested on day 26.
Histological lung inflammation and fibrosis score were carried out in Masson's trichrome stained sections. Inflammation (peribronchiolar, perivascular, and alveolar wall thickness) scored in >5 random fields at magnification×630 using the following system (peribronchiolar and perivascular, 1=no cells, 2=<20 cells, 3=20-100 cells, 4=>100 cells; alveolar wall thickness, 1=no cells, 2=2-3 cells thick, 3=4-5 cells thick, 4=>5 cells thick). The combined inflammatory score was the sum of these scores. Fibrosis score was evaluated as the area of the section positively stained for collagen (1=none, 2=<10%, 3=<50%, 4=>50%). Only fields where the majority of the field was composed of alveoli were scored. […]

The target of a further series is galectin-3 (Homo sapiens, UniProt P17931).
Chain of galectin-3 (P17931 whole entry): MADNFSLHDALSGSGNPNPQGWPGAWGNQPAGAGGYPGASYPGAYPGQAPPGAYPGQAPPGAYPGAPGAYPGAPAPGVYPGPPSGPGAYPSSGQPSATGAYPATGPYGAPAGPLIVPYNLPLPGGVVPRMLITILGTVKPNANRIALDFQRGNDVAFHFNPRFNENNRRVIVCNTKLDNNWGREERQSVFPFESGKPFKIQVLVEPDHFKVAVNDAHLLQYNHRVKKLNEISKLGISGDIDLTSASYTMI
The test system of another series is β-catenin activation. Nature of the series: TGF-β1-induced β-catenin activation in primary alveolar epithelial cells (western blot). The format is cell-based, mouse. Particulars: primary alveolar epithelial cells from WT mice, TGF-β1, 10 μM TD139. How it is done:
Primary alveolar epithelial cells from WT mice were plated and treated with TGF-β1 in the presence or absence of 10 μM TD139. FIG. 1D) Cells were lysed and analyzed for active β-catenin, total β-catenin and β-actin by western blot.
Treated and control mouse type II lung alveolar epithelial cells (AECs) were extracted following a standard method. Briefly, 1 ml of 50 U/ml dispase (BD Biosciences) was administered intratracheally into perfused lungs followed by instillation of 0.5 ml of 1% low melting point agarose. The agarose within the upper airways was allowed to set on ice for 2 minutes and the lungs were placed in 4 ml 50 U/ml dispase for 45 min at room temperature. The lung lobes minus the upper airways were then dispersed in DMEM containing 50 μg/ml DNAse I (Sigma-Aldrich, UK). The cell suspension was passed through a 100 μm cell strainer and the cells washed in DMEM followed by resuspension in DMEM containing 10% FCS. The cell suspension was plated onto tissue culture plastic for 1 h to allow any contaminated fibroblasts and macrophages to adhere. Non-adherent epithelial cells were counted and cultured for 2 days on tissue culture plastic or cover-slips pre-coated with 5 μg/ml collagen (AMS Biotechnology) and 10 μg/ml fibronectin (Sigma-Aldrich), Cells were washed three times in PBS before treatment. […]
Background: Immunoblotting shows a protein as a band on a membrane.

A short description of series [2]: half-life by route of administration. Type of series: in vivo. Particulars: mice.

As for `OC[C@H]1O[C@@H](S[C@@H]2O[C@H](CO)[C@H](O)[C@H](n3cc(-c4cccc(F)c4)nn3)[C@H]2O)[C@H](O)[C@@H](n2cc(-c3cccc(F)c3)nn2)[C@H]1O` [TD139, Bis-{3-deoxy-3-[4-(3-fluorophenyl)-1H-1,2,3-triazol-1-yl]-β-D-galactopyranosyl}sulfane], the “bleomycin induced lung fibrosis in vivo” value in series [1] is listed as “blocked”. The galectin-3 inhibitor entry at galectin-3 is on record as “inhibitor”. The “TGF-β-induced β-catenin activation in vitro” value in the series with β-catenin activation is listed as “blocked”. Further, in series [2], the “half-life, pulmonary route compared with i.v. or s.c. routes” value was “considerably longer half-life”.
